Source: ChEMBL document CHEMBL1201862, “PubChem BioAssay data set” (2004)
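Values below derive from 48-hour exposures of cells grown in 96-well plates, with endpoints linearly interpolated between the two concentrations bracketing the appropriate inhibition level. At the GI50, growth is halved.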 Active and inactive are the calls of the source. Rule as the data show it: active = GI50 up to about 1.1 µM and inactive = higher.

Columns and labels:
Assay in all cases: NCI tumour cell line growth inhibition, 48 h
[1] = test system: 786-0
[2] = test system: A498
[3] = test system: A549
[4] = test system: ACHN
[5] = test system: BT-549
[6] = test system: CAKI-1
[7] = test system: CCRF-CEM
[8] = test system: COLO 205
[9] = test system: DU-145
[10] = test system: EKVX
[11] = test system: HCT-116
[12] = test system: HCT-15
[13] = test system: HL-60
[14] = test system: HOP-62
[15] = test system: HOP-92
[16] = test system: HT-29
[17] = test system: Hs-578T
[18] = test system: IGROV-1
[19] = test system: KM12
[20] = test system: M14
[21] = test system: MCF7
[22] = test system: MDA-MB-231
[23] = test system: MDA-MB-435
[24] = test system: MDA-N
[25] = test system: MOLT-4
[26] = test system: Malme-3M
[27] = test system: NCI-H226
[28] = test system: NCI-H23
[29] = test system: NCI-H460
[30] = test system: NCI-H522
[31] = test system: NCI/ADR-RES
[32] = test system: OVCAR-3
[33] = test system: OVCAR-4
[34] = test system: OVCAR-5
[35] = test system: OVCAR-8
[36] = test system: PC-3
[37] = test system: RPMI-8226
[38] = test system: RXF 393
[39] = test system: SF-268
[40] = test system: SF-295
[41] = test system: SF-539
[42] = test system: SK-MEL-28
[43] = test system: SK-MEL-2
[44] = test system: SK-MEL-5
[45] = test system: SK-OV-3
[46] = test system: SN12C
[47] = test system: SNB-19
[48] = test system: SNB-75
[49] = test system: SR
[50] = test system: SW-620
[51] = test system: T47D
[52] = test system: U-251
[53] = test system: UACC-257
[54] = test system: UACC-62
[55] = test system: UO-31
[56] = test system: K562
[57] = test system: LOX IMVI
[58] = test system: TK-10

## Cc1cc2c(cc1-c1cc3c(cc1C)C(C(C)C)=C(O)C(=O)/C3=C\Nc1c3ccccc3nc3ccccc13)/C(=C/Nc1c3ccccc3nc3ccccc13)C(=O)C(O)=C2C(C)C
[1]
  GI50: 2.72 µM (inactive)
[2]
  GI50: 7.03 µM (inactive)
[3]
  GI50: 2.97 µM (inactive)
[4]
  GI50: 1.49 µM (inactive)
[5]
  GI50: 5.85 µM (inactive)
[6]
  GI50: 3.03 µM (inactive)
[7]
  GI50: 3.51 µM (inactive)
[8]
  GI50: 1.99 µM (inactive)
[9]
  GI50: 6.3 µM (inactive)
[10]
  GI50: 1.75 µM (inactive)
[11]
  GI50: 6.25 µM (inactive)
[12]
  GI50: 3.85 µM
[13]
  GI50: 2.78 µM (inactive)
[14]
  GI50: 4.26 µM (inactive)
[15]
  GI50: 5.73 µM (inactive)
[16]
  GI50: 1.54 µM (inactive)
[17]
  GI50: 3.77 µM (inactive)
[18]
  GI50: 2.64 µM (inactive)
[19]
  GI50: 3.09 µM (inactive)
[20]
  GI50: 2.67 µM (inactive)
[21]
  GI50: 3.17 µM (inactive)
[22]
  GI50: 4.55 µM (inactive)
[23]
  GI50: 4.6 µM (inactive)
[24]
  GI50: 4.06 µM (inactive)
[25]
  GI50: 3.27 µM (inactive)
[26]
  GI50: 2.2 µM (inactive)
[27]
  GI50: 1.26 µM (inactive)
[28]
  GI50: 3.66 µM (inactive)
[29]
  GI50: 2.09 µM (inactive)
[30]
  GI50: 1.13 µM (inactive)
[31]
  GI50: 2.59 µM (inactive)
[32]
  GI50: 3.47 µM (inactive)
[33]
  GI50: 3.15 µM (inactive)
[34]
  GI50: 4.4 µM (inactive)
[35]
  GI50: 2.3 µM (inactive)
[36]
  GI50: 3.25 µM (inactive)
[37]
  GI50: 4.52 µM (inactive)
[38]
  GI50: 5.24 µM (inactive)
[39]
  GI50: 3.36 µM (inactive)
[40]
  GI50: 2.31 µM (inactive)
[41]
  GI50: 3.86 µM (inactive)
[42]
  GI50: 7.03 µM (inactive)
[43]
  GI50: 5.58 µM (inactive)
[44]
  GI50: 3.99 µM (inactive)
[45]
  GI50: 3.34 µM (inactive)
[46]
  GI50: 4.47 µM (inactive)
[47]
  GI50: 3.82 µM (inactive)
[48]
  GI50: 2.32 µM (inactive)
[49]
  GI50: 3.91 µM (inactive)
[50]
  GI50: 2.9 µM (inactive)
[51]
  GI50: 6.17 µM (inactive)
[52]
  GI50: 4.02 µM (inactive)
[53]
  GI50: 4.34 µM (inactive)
[54]
  GI50: 3.66 µM (inactive)
[55]
  GI50: 3.03 µM (inactive)

## Nc1nc(Nc2ccccc2)sc1C(=O)c1c[nH]c2ccccc12
[1]
  GI50: 5.52 µM (inactive)
[2]
  GI50: 11.4 µM (inactive)
[3]
  GI50: 7.52 µM (inactive)
[4]
  GI50: 15.6 µM (inactive)
[5]
  GI50: 14.8 µM (inactive)
[7]
  GI50: 3.2 µM (inactive)
[8]
  GI50: 4.2 µM (inactive)
[9]
  GI50: 9.89 µM (inactive)
[10]
  GI50: 5.94 µM (inactive)
[11]
  GI50: 6.97 µM (inactive)
[12]
  GI50: 3.95 µM
[13]
  GI50: 19.1 µM (inactive)
[14]
  GI50: 16.7 µM (inactive)
[15]
  GI50: 16.4 µM (inactive)
[16]
  GI50: 3.73 µM (inactive)
[17]
  GI50: 16.3 µM (inactive)
[18]
  GI50: 12.9 µM (inactive)
[56]
  GI50: 4.06 µM (inactive)
[19]
  GI50: 10.2 µM (inactive)
[57]
  GI50: 13.5 µM (inactive)
[20]
  GI50: 8 µM (inactive)
[21]
  GI50: 11.8 µM (inactive)
[22]
  GI50: 17.2 µM (inactive)
[23]
  GI50: 11.2 µM (inactive)
[24]
  GI50: 12.4 µM (inactive)
[25]
  GI50: 2.08 µM (inactive)
[26]
  GI50: 19.4 µM (inactive)
[27]
  GI50: 10.6 µM (inactive)
[28]
  GI50: 17.5 µM (inactive)
[29]
  GI50: 4.23 µM (inactive)
[31]
  GI50: 12.6 µM (inactive)
[32]
  GI50: 13.4 µM (inactive)
[33]
  GI50: 10.3 µM (inactive)
[34]
  GI50: 11.9 µM (inactive)
[36]
  GI50: 11.6 µM (inactive)
[37]
  GI50: 10.7 µM (inactive)
[38]
  GI50: 8.49 µM (inactive)
[39]
  GI50: 15.1 µM (inactive)
[41]
  GI50: 12.4 µM (inactive)
[42]
  GI50: 11.7 µM (inactive)
[43]
  GI50: 15.1 µM (inactive)
[44]
  GI50: 11.8 µM (inactive)
[45]
  GI50: 16.6 µM (inactive)
[46]
  GI50: 15.7 µM (inactive)
[47]
  GI50: 3.28 µM (inactive)
[49]
  GI50: 1.45 µM (inactive)
[50]
  GI50: 11.1 µM (inactive)
[51]
  GI50: 6.49 µM (inactive)
[58]
  GI50: 3.09 µM (inactive)
[52]
  GI50: 10.7 µM (inactive)
[53]
  GI50: 10.8 µM (inactive)
[54]
  GI50: 14.8 µM (inactive)
[55]
  GI50: 2.56 µM (inactive)

## CC1(C)CC(=O)c2c(nc3ccc4ccccc4c3c2-c2ccc(NC(=O)CCCCC(=O)Nc3ccc(-c4c5c(nc6ccc7ccccc7c46)CC(C)(C)CC5=O)cc3)cc2)C1
[1]
  GI50: > 100 µM (inactive)
[2]
  GI50: > 100 µM (inactive)
[3]
  GI50: > 100 µM (inactive)
[4]
  GI50: > 100 µM (inactive)
[5]
  GI50: > 100 µM (inactive)
[6]
  GI50: > 100 µM (inactive)
[7]
  GI50: > 100 µM (inactive)
[8]
  GI50: > 100 µM (inactive)
[9]
  GI50: > 100 µM (inactive)
[10]
  GI50: > 100 µM (inactive)
[11]
  GI50: > 100 µM (inactive)
[12]
  GI50: > 100 µM
[13]
  GI50: > 100 µM (inactive)
[14]
  GI50: > 100 µM (inactive)
[15]
  GI50: > 100 µM (inactive)
[16]
  GI50: > 100 µM (inactive)
[17]
  GI50: > 100 µM (inactive)
[18]
  GI50: > 100 µM (inactive)
[56]
  GI50: > 100 µM (inactive)
[19]
  GI50: > 100 µM (inactive)
[57]
  GI50: > 100 µM (inactive)
[20]
  GI50: > 100 µM (inactive)
[21]
  GI50: > 100 µM (inactive)
[22]
  GI50: > 100 µM (inactive)
[23]
  GI50: > 100 µM (inactive)
[24]
  GI50: > 100 µM (inactive)
[25]
  GI50: > 100 µM (inactive)
[27]
  GI50: > 100 µM (inactive)
[28]
  GI50: > 100 µM (inactive)
[29]
  GI50: > 100 µM (inactive)
[31]
  GI50: > 100 µM (inactive)
[32]
  GI50: > 100 µM (inactive)
[34]
  GI50: > 100 µM (inactive)
[35]
  GI50: > 100 µM (inactive)
[36]
  GI50: > 100 µM (inactive)
[37]
  GI50: > 100 µM (inactive)
[39]
  GI50: > 100 µM (inactive)
[40]
  GI50: > 100 µM (inactive)
[41]
  GI50: > 100 µM (inactive)
[42]
  GI50: > 100 µM (inactive)
[43]
  GI50: > 100 µM (inactive)
[44]
  GI50: > 100 µM (inactive)
[45]
  GI50: > 100 µM (inactive)
[46]
  GI50: > 100 µM (inactive)
[47]
  GI50: > 100 µM (inactive)
[48]
  GI50: > 100 µM (inactive)
[49]
  GI50: > 100 µM (inactive)
[50]
  GI50: > 100 µM (inactive)
[51]
  GI50: > 100 µM (inactive)
[58]
  GI50: > 100 µM (inactive)
[52]
  GI50: > 100 µM (inactive)
[53]
  GI50: > 100 µM (inactive)
[54]
  GI50: > 100 µM (inactive)
[55]
  GI50: > 100 µM (inactive)
